Measurements reported in patent publication US20230012172A1, “COMPOSITIONS AND METHODS FOR TREATMENT OF PLATINUM-BASED CHEMOTHERAPEUTIC RESISTANT TUMORS” (The George Washington University, priority 2020, published 2023).
Read-outs that look alike come from different tables or passages of the source.

Assays:
[1] = target: T1, SENP1 (Homo sapiens, UniProt Q9P0U3); assay: In vitro deSUMOylation assay with recombinant His-JAK2 and GST-SENP1; assay type: biochemical; design: made in house; host or cells: E. coli BL21 (DE3) for pET28a-JAK2
T1 sequence (Q9P0U3 1-644): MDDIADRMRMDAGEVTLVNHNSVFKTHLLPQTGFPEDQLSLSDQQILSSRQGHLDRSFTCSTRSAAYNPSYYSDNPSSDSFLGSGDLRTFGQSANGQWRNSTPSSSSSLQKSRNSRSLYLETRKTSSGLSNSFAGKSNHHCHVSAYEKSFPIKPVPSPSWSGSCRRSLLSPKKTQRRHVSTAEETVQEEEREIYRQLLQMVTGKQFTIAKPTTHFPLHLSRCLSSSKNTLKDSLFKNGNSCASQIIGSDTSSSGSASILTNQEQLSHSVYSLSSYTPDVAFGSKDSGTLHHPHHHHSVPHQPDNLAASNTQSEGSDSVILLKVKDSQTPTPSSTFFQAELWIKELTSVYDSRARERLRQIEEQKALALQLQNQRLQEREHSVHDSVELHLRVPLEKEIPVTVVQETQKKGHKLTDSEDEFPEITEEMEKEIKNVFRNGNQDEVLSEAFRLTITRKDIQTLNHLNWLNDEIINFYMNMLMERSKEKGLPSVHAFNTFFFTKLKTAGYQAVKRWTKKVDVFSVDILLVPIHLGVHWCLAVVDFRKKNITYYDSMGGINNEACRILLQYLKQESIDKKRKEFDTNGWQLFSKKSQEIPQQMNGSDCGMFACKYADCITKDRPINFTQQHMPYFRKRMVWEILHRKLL
Experimental: To further determine whether SENP1 can directly deSUMOylate JAK2, in vitro deSUMOylation assays were performed by using purified recombinant His-JAK2 and GST-SENP1 proteins.
In vitro SUMOylation assay. The SUMOylation reactions were performed according to the manufacture's instruction (BML-UW8955-0001; ENZO). Briefly, 200 nM of purified HIS-JAK2 was suspended in reaction buffer (20 μl) containing Mg-ATP, SUMO E1, SUMO E2 and recombinant SUMOs. RanGAP1 (provided in the kit) was used as the substrate for positive control. The reaction was incubated at 37° C. for 60 minutes and terminated by using 20 μl of SDS loading buffer. […] The reactions were then subjected to Western blot to evaluate SUMOylation level.
Protein expression and purification. pET28a-JAK2 and its mutant was transformed in BL21 (DE3) E. coli cells by heat shot method at 42° C. and grown in Luria Broth (LB) at 37° C. E. coli cells were induced with 0.5 mM IPTG to induct protein expression. Cells were harvested by centrifugation at 5,000 g, 4° C. for 15 min and the pellet was resuspended in lysis buffer (20 mM Tris pH 7.9, 500 mM NaCl, 5 mM imidazole, 2 mM DTT and 1× protease inhibitor cocktail). Cells were then sonicated and centrifuged at 14,000 g, 4° C. for 15 min. 1 ml of Ni-NTA was added to the supernatant and incubated at 4° C. with end-to-end mixing for 2 hours and subjected to a column. The Ni-NTA resin was washed with 10 ml wash buffer (20 mM Tris pH 7.9, 250 mM NaCl, 15 mM Imidazole and 0.5 mM DTT) and eluted with 1 ml elution buffer (20 mM Tris pH 7.9, 250 mM NaCl and 1 M imidazole). The elute was then concentrated by using a protein concentrator (Thermo Scientific™ Pierce™) and resuspend in dialysis buffer (50 mM Tris pH 7.9, 50 mM NaCl, 2 mM DTT, and 10% glycerol). The purified protein was stored at −80° C. pGEX-4T1-SENP1 and its mutant were purified using following buffers: lysis buffer (1 mM DTT, and lx protease inhibitor cocktail, 800 mM NaCl, 5 mM EDTA, 50 mM Tris-pH8.0, 0.1% Triton x-100), wash buffer (800 mM NaCl, 5 mM EDTA, 50 mM Tris-pH8.0, 0.1% Triton x-100), elution buffer (40 mM glutathione, 800 mM NaCl, 5 mM EDTA, 50 mM Tris-pH8.0, 0.1% Triton x-100), dialysis buffer (50 mM Tris pH 7.9, 50 mM NaCl, 2 mM DTT, and 10% glycerol).

[2] = target: T1, SENP1; assay: Cellular thermal shift assay; conditions: IGROV1 cells, higher temperature
Experimental: To determine whether UA binds to SENP1 directly, cellular thermal shift assays were performed in which a small molecule binds to a protein resulting in thermal stabilization of the protein.

[3] = tested on: IGROV1 CR cells; assay: Cell viability assay (SRB) in IGROV1 CR cells; assay type: cell-based, human; conditions: 150 nM UA, IGROV1 CR cells
Experimental: (§1) Cell culture and resistance cell line establishment. IGROV1 cells, U2OS (HTB-96; ATCC), HEK293T (CRL-11268; ATCC) and SKOV3 cells (HTB-77; ATCC) were cultured at 37° C. in DMEM with 10% Fetal Bovine Serum (FBS). PEO1 (10032308; Sigma-Aldrich), PEO4 (10032309; Sigma-Aldrich), PEO14 (10032311; Sigma-Aldrich) and PE023 cells (10032313; Sigma-Aldrich) were cultured at 37° C. in RPMI-1640 with 10% FBS. OV90 (CRL-11732; ATCC) was cultured in medium containing 1:1 MCDB 105 (Sigma) and M199 (Sigma) supplemented with 10% FBS at 37 ° C. All the cells were cultured at in a humidified incubator with 5% CO2 atmosphere. Cisplatin resistant cell lines, including SKOV3 CR, IGROV1 CR and OV90 CR, were generated using an approach similar to that reported in Zhou et al., (2018) Oncogene 37, 3981-3997, the disclosure of which is incorporated herein in its entirety.
(§2) Cell viability assay. Cells were seeded at 3,000 cells/well in 96-well plates were treated with drugs, followed by incubation for 48 hours, after which cell viability was detected using Sulforhodamine B (SRB) assay (64). Absorbance at 510 nm was detected using a SpectraMax Reader (Molecular Devices) and analyzed with SoftMax Analysis Software (Molecular Devices). Combinational index (CI) values were calculated using CompuSyn software.

[4] = target: T1, SENP1; assay: Cell free thermal shift assay with recombinant SENP1; assay type: binding; design: GST (N); made in house; host or cells: E. coli implied (pGEX-4T1 vector; BL21 (DE3) is stated only for pET28a-JAK2)
[5] = tested on: PE023 cells; assay: Cell viability assay (SRB) in PE023 cells; assay type: cell-based
Experimental: as §1, §2

[6] = tested on: PEO4 cells; assay: Cell viability assay (SRB) in PEO4 cells; assay type: cell-based
Experimental: as §1, §2

[7] = recombinant GST-SENP1, 3 hours, read-out: IC50 to inhibit deSUMOylation of His-JAK2 in vitro

SMILES | fold more potency to inhibit deSUMOylation of His-JAK2 in vitro than Mc ([1]; UA versus Mc) | IC50 [1, 7] | SENP1 protein thermal stabilization versus DMSO [2] | CI value with cisplatin, cell survival [3] | thermal stabilization of recombinant SENP1 proteins [4] | IC50 ([1]; in vitro, read-out: SENP1 activity was inhibited with IC50) | re-sensitization to cisplatin [5] | synergy with cisplatin (combination index) [5] | re-sensitization to cisplatin [6] | synergy with cisplatin (combination index) [6]
C[C@H]1[C@H](C)CC[C@]2(C(=O)O)CC[C@]3(C)C(=CC[C@@H]4[C@@]5(C)CC[C@H](O)C(C)(C)[C@@H]5CC[C@]43C)[C@H]12 [UA, ursolic acid] | 3000 fold | 0.0064 µM | stabilized | < 1 | stabilized |  |  |  |  | 
CC1(C)CC[C@]2(C(=O)O)CC[C@]3(C)C(=CC[C@@H]4[C@@]5(C)CC[C@H](O[C@@H]6O[C@H](C(=O)O)[C@@H](O)[C@H](O[C@@H]7OC[C@@H](O)[C@H](O)[C@H]7O)[C@H]6O)C(C)(C)[C@@H]5CC[C@]43C)[C@@H]2C1 [Mc, Momordin Ic] |  | 19.9 µM |  |  |  | 15.4 µM | re-sensitized | synergy | re-sensitized | synergy
